One compound from ChEMBL document CHEMBL1152340, “Flavonoid glucuronides and a chromone from the aquatic macrophyte Stratiotes aloides” (2009) can be followed below.

The source made the active and inactive calls. The calls are words filed in the database; no cut-off is given here.

For assay [1], the system named is SH-SY5Y. Put plainly: Induction of apoptosis in human SH-SY5Y cells assessed as DNA fragmentation at 50 uM after 4 days by Hoechst 33342 method. In kind it is functional, cell-based.
In assay [2] the test system is SH-SY5Y. Put plainly: Cytotoxicity against human SH-SY5Y cells after 4 days by DAPI staining method. In kind it is functional, cell-based.
Assay [3] has as its system SH-SY5Y. The assay is described as follows: Cytotoxicity against human SH-SY5Y cells at 50 uM after 4 days by DAPI staining method. Format: functional.
For assay [4], the system named is SH-SY5Y. The assay is described as follows: Cytotoxicity against human SH-SY5Y cells at 10 uM after 4 days by DAPI staining method. In kind it is functional.
A short description of assay [5]: Cytotoxicity against human PA-TU-8902 cells at 50 uM after 4 days by DAPI staining method relative to control. In kind it is functional.

Take `O=C(O)[C@H]1O[C@@H](O[C@H]2[C@H](Oc3cc(O)c4c(=O)cc(-c5ccc(O)c(O)c5)oc4c3)O[C@H](CO)[C@@H](O)[C@@H]2O)[C@H](O)[C@@H](O)[C@@H]1O`: the result in the assay on SH-SY5Y [1] was Active. Further, the Activity result with SH-SY5Y [2] is “Dose-dependent effect”; in the assay with SH-SY5Y [3], 75%; in the assay on SH-SY5Y [4], 75%; in assay [5], 20%.
